Reference: the supplement of paper PMC10627819

What was measured:
[1] = system: B. subtilis 168; assay: fitness (endpoint OD595 vs no drug) (fraction); higher = more growth
Method in brief: (§1)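 Fitness expresses the optical density reached at the stationary-phase transition as a fraction of the robust mean of no-drug control wells. It is capped at 1. Measurements were OD595 every 30 min for 14 h at 37 °C after inoculation of 384-well plates at OD595 0.01 (30 µl, or 55 µl for S. pneumoniae), minus the first reading.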

[2] = system: S. pneumoniae D39V; assay: as above
Method in brief: as §1
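Note: OD595 on entry to stationary phase over no-drug wells; at most 1.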

O=C(O)[C@H]1/C(=C/CO)O[C@@H]2CC(=O)N21 [Clavulanic acid] + CN(C)C(=O)C(CCN1CCC(O)(c2ccc(Cl)cc2)CC1)(c1ccccc1)c1ccccc1 [Loperamide]
fitness
Details	first compound 0.5 µg/mL	first compound 1 µg/mL	first compound 1.5 µg/mL	first compound 2 µg/mL	first compound 3 µg/mL	first compound 6 µg/mL
[1], partner 25 µg/mL	–	–	0.848	–	0.742	0.614
[2], partner 17.14 µg/mL	0.954	0.95	–	0.836	–	–
[2], partner 20 µg/mL	≥ 1	≥ 1	–	0.89	–	–
[2], partner 34.28 µg/mL	0.931	0.913	–	0.75	–	–
[2], partner 40 µg/mL	≥ 1	≥ 1	–	0.926	–	–
[2], partner 80 µg/mL	0.0391	0.185	–	0.0465	–	–

[2], partner 68.57 µg/mL, one replicate
Details	fitness
first compound 0.5 µg/mL	0.952
first compound 1 µg/mL	0.944
first compound 2 µg/mL	0.849

O=C(O)[C@H]1/C(=C/CO)O[C@@H]2CC(=O)N21 [Clavulanic acid] + CN(C)[C@@H]1C(O)=C(C(N)=O)C(=O)[C@@]2(O)C(O)=C3C(=O)c4c(O)ccc(Cl)c4[C@@](C)(O)[C@H]3C[C@@H]12 [Chlortetracycline]
fitness
Details	partner 0.012 µg/mL	partner 0.024 µg/mL	partner 0.0475 µg/mL	partner 0.048 µg/mL	partner 0.095 µg/mL	partner 0.19 µg/mL	partner 0.375 µg/mL	partner 0.75 µg/mL	partner 1.5 µg/mL
[1], first compound 1.5 µg/mL	–	–	0.873	–	0.754	0.58	–	–	–
[1], first compound 3 µg/mL	–	–	0.838	–	0.708	0.512	–	–	–
[1], first compound 6 µg/mL	–	–	0.745	–	0.582	0.422	–	–	–
[2], first compound 0.5 µg/mL	0.906	0.699	–	0.306	–	–	0.0436	0.0585	0.0458
[2], first compound 1 µg/mL	0.821	0.686	–	0.366	–	–	0.0323	0.0545	0.0428
[2], first compound 2 µg/mL	0.618	0.462	–	0.246	–	–	0.0402	0.0396	0.0545
